This passage reports GI50 and TGI results from PubChem BioAssay (NCI).

“And” between values parts separate entries of the source, which are not always exact repeats. Identical values can stand only once.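 Five compound concentrations were applied to cells in 96-well plates for 48 hours; endpoints were derived by simple linear interpolation of the resulting dose-response curve. The concentration for 50% growth inhibition is given as GI50. TGI is the concentration that stops growth completely.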

The assay has as its system MDA-MB-468 breast. The experiment in a line: NCI-60 cell line screen, 48 h.
With `CCC(CC)n1cnc2c(-c3cnc(N)cn3)nc(N3CC4CCC(C3)O4)nc21`, the GI50 is 189 nM and the TGI turned out to be 2810 nM.

For the compound `O=C1c2c(c(=O)[nH]c3ccccc23)[C@H](c2ccccc2)[C@@H]2CCCN12`, the GI50 is 2920 nM and the TGI came to 14300 nM.

Consider `CN(C)c1ccc(/C=N/NC(N)=S)nc1`, for which the GI50 was 2210 nM and the TGI was determined as 8410 nM.

For the compound `Fc1cccc(COc2ccc(Nc3ncnc4onc(-c5ccccc5)c34)cc2)c1`, the GI50 was 116 nM and the TGI is 2160 nM.

Turning to `COc1ccc(-c2ncnc3c2ncn3CC#CCCl)cc1`, the GI50 was 2370 nM and the TGI was found to be 7290 nM.

With `Cc1ccc(CNc2ccc3nc(CCC4CCCCC4)[nH]c3c2)cc1`, the GI50 is 1520 nM and the TGI was determined as 3350 nM.

For the compound `COc1ccc2c(c1)c(-c1nc(-c3cn(C)c4ccncc34)cs1)cn2C`, the GI50 was 1620 nM and the TGI was 3200 nM.

On to `COc1ccc(C(C)=C(c2ccc(OCCN3CCCCCC3)cc2)c2ccc(OCCN3CCCCCC3)cc2)cc1`, for which the GI50 is 806 nM and the TGI came to 3050 nM.

For `C[C@@H]1C[C@H](N)C[C@H](c2ccncc2NC(=O)c2ccc(F)c(-c3c(F)cccc3F)n2)C1`, the GI50 is 4160 nM and 2910 nM; the TGI was 18300 nM and > 10000 nM.

Consider `CC1=C([Te]c2ccccc2)C(=O)c2ccccc2C1=O`, for which the GI50 was 442 nM and the TGI stood at 2120 nM.

For the compound `CCOC(=O)c1[nH]c2cc(Cl)ccc2c1[C@@H](C(=O)NC(C)(C)C)N(CC)C(=O)CCCCC#Cc1cccc2c1CN(C1CCC(=O)NC1=O)C2=O` (some centres undefined), the GI50 is < 10 nM and the TGI was < 14.2 nM.

As to `CC1(C)N=C(N)N=C(N)N1c1ccc(CNC(=O)Nc2ccc(S(=O)(=O)F)c(Cl)c2)c(Cl)c1`, the GI50 was 689 nM and the TGI is > 100000 nM.

For `COc1cc2nc(N3CCCN(C)CC3)nc(NC3CCN(Cc4ccccc4)CC3)c2cc1OC`, the GI50 was 1500 nM and the TGI was determined as 3190 nM.

On to `COc1cc(-c2nn(-c3cccc(NC(=O)Nc4ccc(Cl)c(C(F)(F)F)c4)c3)cc2-c2ccncc2)ccc1Cl`, for which the GI50 is 833 nM and the TGI is 4420 nM.

Turning to `COC[C@H](NC(=O)c1cnc(C)s1)C(=O)N[C@@H](COC)C(=O)N[C@@H](Cc1ccccc1)C(=O)[C@@]1(C)CO1`, the GI50 was 14800 nM and the TGI turned out to be 38100 nM.

Consider `COc1cnc2c(c1)C(=O)c1c-2n(CCCN2CCCC2)c(=O)c2cc([N+](=O)[O-])ccc12`, for which the GI50 is 27.1 nM and the TGI is 1030 nM.

With `COc1cc2nc(Nc3cccc(Cl)c3)nc(N)c2cc1OC`, the GI50 was 4370 nM and the TGI amounted to 17300 nM.

For the compound `O=S(=O)(N=C1C(Cl)=C(Cl)C(=NS(=O)(=O)c2ccccc2)C(Cl)=C1Cl)c1ccccc1`, the GI50 is 15100 nM and the TGI came to 35900 nM.

Take `C=C(C)[C@@H]1CC[C@]2(CO)CC[C@]3(C)[C@H](CC[C@@H]4[C@@]5(C)CCCNC(C)(C)[C@@H]5CC[C@]43C)[C@@H]12`: the GI50 was 1660 nM and the TGI is 3380 nM.

For `CC1COc2c(N3CCN(C)CC3)c(F)cc3c(=O)c(C(=O)N/N=C/c4cc[nH]c4)cn1c23` (centres undefined), the GI50 was 412 nM and the TGI stood at 1730 nM.

Take `COC(=O)/C=C1/SC(=Nc2cccc(Cl)c2)N(CCc2c[nH]c3ccc(O)cc23)C1=O`: the GI50 is 1990 nM and the TGI amounted to 4400 nM.

For `Cc1ccc2c(C(C[N+](=O)[O-])c3ccccc3)c(-c3ccccc3)[nH]c2c1` (centres undefined), the GI50 was 12700 nM and the TGI is > 95000 nM.

As to `Cc1cc2c(F)c(Oc3ncnc(Nc4ccc(N5C[C@@H](C)N[C@@H](C)C5)cc4)c3C#N)cc(F)c2[nH]1`, the GI50 was 2050 nM and the TGI was determined as 4750 nM.

As for `COc1ccc(Nc2nc(NCCNc3ccnc4cc(Cl)ccc34)nc(N3CCOCC3)n2)cc1`, the GI50 was 1620 nM and the TGI worked out at 4030 nM.

With `C(=N\Nc1ncc(-c2cc3cc4c(cc3o2)OCO4)s1)/c1ccco1`, the GI50 is 2140 nM and the TGI was 7140 nM.

With `CCCc1nn(C)c2c(=O)[nH]c(-c3cc(S(=O)(=O)N4CCN(C)CC4)ccc3OCC)nc12`, the GI50 is 35000 nM and the TGI is > 100000 nM.

`Nc1ncc(-c2ccc3ncnc(Nc4cccc(Cl)c4)c3c2)cn1`: the GI50 was 56.5 nM and the TGI was 378 nM.

As for `COc1ccc(Br)cc1NC(=O)Nc1cccc2c1ccn2Cc1ccnc(N)c1`, the GI50 is 2850 nM and 4540 nM; the TGI is 12000 nM and > 10000 nM.

Turning to `NC(=S)N/N=C/c1ccc(OC(=O)COc2cc(Cl)c(Cl)cc2Cl)cn1`, the GI50 is 2410 nM and the TGI was determined as 8710 nM.

On to `COc1cc(CCC[P+](c2ccccc2)(c2ccccc2)c2ccccc2)c(OC)c2c1OCO2`, for which the GI50 is 292 nM and the TGI came out at 950 nM.

`Cn1ncc(Cl)c1-c1cc(C(=O)N[C@H](CN)Cc2cccc(F)c2)sc1Cl`: the GI50 is 38.7 nM and 92 nM; the TGI was 582 nM and 1390 nM.

As to `Cc1c(Cn2c(C)nc3c(C(=O)O)cc(N4CCOCC4)cc32)cccc1C(F)(F)F`, the GI50 was 26700 nM and the TGI is > 100000 nM.

As to `Cc1c(CN2CCN(C(=O)[C@H](C)O)CC2)sc2c(N3CCOCC3)nc(-c3cnc(N)nc3)nc12`, the GI50 is 124 nM and 79.3 nM; the TGI is 1140 nM and 456 nM.

As to `CC(=O)O.CN1[CH-]N(Cc2ccc(C#N)cc2)c2ccccc21.[Ag+]`, the GI50 is 12800 nM and the TGI stood at 28500 nM.

For the compound `CCOC(=O)C(=Cc1ccc(C#N)cc1)C(=O)OCC`, the GI50 was 1980 nM and the TGI is 3840 nM.

On to `CN1C(=O)CCC(N2C(=O)c3cccc(NCCOCCOCCNC(=O)c4cc5c(o4)C(=O)c4ccccc4C5=O)c3C2=O)C1=O` (centres undefined), for which the GI50 was 1760 nM and the TGI turned out to be 5040 nM.

On to `CCN1CCN(CCNc2nccc(-c3c(-c4ccc(F)c(O)c4)nc4occn34)n2)S1(=O)=O`, for which the GI50 was 4530 nM and the TGI was > 100000 nM.
